In patent US8552057B2, “Phytoestrogenic formulations for alleviation or prevention of neurodegenerative diseases” (priority 2006, dated 2013):
Read-outs that look alike come from different tables or passages of the source.

Tests used:
[1] = test system: adult ovariectomized rats; conditions: rat, in vivo
human ERβ = human ERβ (Homo sapiens (Human), UniProt Q92731); assay: Fluorescence polarization competitive binding assay, ERβ; conditions: for ERβ RBA (%): percent of the binding affinity of 17β-estradiol (RBA = 100%)
[2] = test system: primary hippocampal neurons; assay: Glutamate-induced neurotoxicity, LDH release; conditions: for LDH Release (% of Control): 48 h pretreatment, 5-min glutamate, LDH 24 h later; for concentration that elicited the maximal neuroprotective effects: from the dose-response analyses, administered alone
human ERα = human ERα (Homo sapiens (Human), UniProt P03372); assay: Fluorescence polarization competitive binding assay, ERα; conditions: for ERα RBA (%): percent of the binding affinity of 17β-estradiol (RBA = 100%)
[3] = test system: adult ovariectomized rats; assay: Uterine weight in adult ovariectomized rats; conditions: 6 mg/kg BW
[4] = 2 subcutaneous injections once daily, 24 h after 2nd injection
[5] = compared with vehicle-treated control (set as 0)

| SMILES | LDH Release (% of Control) ([2]; 1 nM) | LDH Release (% of Control) ([2]; 10 nM) | LDH Release (% of Control) ([2]; 100 nM) | LDH Release (% of Control) ([2]; 1 μM) | LDH Release (% of Control) ([2]; 10 μM) | concentration that elicited the maximal neuroprotective effects [2] [nM] | other results |
| --- | --- | --- | --- | --- | --- | --- | --- |
| C[C@]12CC[C@@H]3c4ccc(O)cc4CC[C@H]3[C@@H]1CC[C@@H]2O [17β-Estradiol] | – | – | – | – | – | – | impact on uterine weight [1]: markedly increased |
| O=C1Oc2cc(O)cc(Cc3ccccc3)c2CC1c1ccc(Cl)cc1 (stereo not shown) [Compd 3] | – | – | – | – | – | – | IC50 (human ERβ; Table 1, read-out: IC50 ERβ): 250 nM |
| O=c1nc2n(c3cc4ccccc4cc13)Cc1ccccc1-2 [Compd 12] | – | – | – | – | – | – | binding to ERβ (human ERβ): either very weak or no binding |
| O=c1c(-c2ccc(O)cc2)coc2cc(O)ccc12 [Daidzein, daidzein] | 338.39 ± 16.49 % of Control | 333.98 ± 9.10 % of Control | 301.42 ± 7.70 % of Control | 318.49 ± 15.92 % of Control | 325.41 ± 26.12 % of Control | 100 | ERβ RBA (%) (human ERβ): 1.867%; ERα RBA (%) (human ERα): 0.0949% |
| Oc1ccc([C@H]2COc3cc(O)ccc3C2)cc1 [Equol, equol] | 453.50 ± 23.37 % of Control | 403.78 ± 17.02 % of Control | 331.59 ± 9.67 % of Control | 381.80 ± 12.01 % of Control | 390.21 ± 9.40 % of Control | 100 | Selectivity (β/α) (human ERβ; Table 2): 10.09; IC50 (human ERβ; Table 2, full-length human ERβ, read-out: ERβ IC50): 582 nM; ERβ RBA (%) (human ERβ): 5.571%; IC50 (human ERα): 5880 nM; ERα RBA (%) (human ERα): 0.4306% |
| CC(=O)[C@H]1CC[C@H]2[C@@H]3CCC4=CC(=O)CC[C@]4(C)[C@H]3CC[C@]12C [Progesteron, progesterone, reference compound] | – | – | – | – | – | – | binding to ERβ (human ERβ): does not bind; binding to ERα (human ERα): does not bind |
| O=c1c(-c2ccc(O)cc2)coc2cc(O)cc(O)c12 [genistein] | 361.03 ± 7.71 % of Control | 350.02 ± 8.21 % of Control | 347.24 ± 16.96 % of Control | 356.79 ± 11.15 % of Control | 377.84 ± 8.45 % of Control | 100 | Uterine Dry Weight [3, 4]: 28.14 ± 2.04 mg; Uterine Wet Weight [3, 4]: 144.11 ± 10.18 mg; Uterine Dry Weight Increase (%) [3, 5]: 6.49 ± 7.71%; Uterine Wet Weight Increase (%) [3, 5]: 12.92 ± 7.97% |
